The source of these data is US11141462B2, “Method for the treatment or prevention of osteoarthritis” (Chondropeptix B.V., priority 2016, dated 2021).

The assay has as its system OA articular chondrocytes. The assay is described as follows: OA chondrocyte phenotype gene expression screening of BMP-7 peptides (RT-qPCR). The assay is classed as cell-based, human. More on the design: key to COX-2 / COL2A1 / SOX9: [+] denotes a significantly increased expression of chondrogenic marker genes SOX9 and COL2A1, or a significantly decreased expression of OA phenotypic marker COX-2 in OA articular chondrocytes, in comparison to untreated OA articular chondrocytes; key to IL-6 / ADAMTS5 / COL10A / BAPX1/NKX3.2 / ALP / RUNX2: —: [-] denotes the absence of a significant effect or a significantly decreased expression of chondrogenic marker genes BAPX1/NKX3.2, or a significantly increased expression of OA phenotypic markers IL-6, ADAMTS5, COL10A, ALP and RUNX2 in OA articular chondrocytes, in comparison to untreated OA articular chondrocytes. Conditions: for COL2A1 / COX-2 / SOX9: Table 5; for suppression of the OA chondrocyte phenotype: independent of the tested concentration (1000, 100, 10 and 1 nM were tested); for activity in the assays as employed herein (table 2): peptides with additional amino acid N-terminal of position 100. As to the method: (§1) FIG. 2: The action of 20-mer peptides (10 nM) of SEQ ID NO: 2-17 (peptides with 1 or 2 amino acids intervals (18-19 amino acid overlap)) and a random peptide with a sequence according to SEQ ID NO: 49 on the expression of ADAMTS5 was determined on a validated pool of passage 2 OA human articular chondrocytes (n=18) and compared to full-length recombinant BMP-7 (1 nM). Samples were harvested after 24 hours and analyzed for indicated genes by RT-qPCR (normalized for 28S rRNA expression and relative to control conditions (no peptide exposure)). In the graphs, numbers on the x-axis represent individual peptides according to their SEQ ID NO's, error bars represent mean±SEM, statistical differences were calculated (one-way ANOVA with bonferroni correction) to control condition. *=p<0.05 lower than control condition for ADAMTS5. Random peptide is a peptide according to SEQ ID NO: 49.
as §1, with “3:” for “2:”, “ALP” for “ADAMTS5”, “ALP.” for “ADAMTS5.”
as §1, with “4:” for “2:”, “BAPX1/NKX3.2” for “ADAMTS5”, “BAPX1/NKX3.2.” for “ADAMTS5.”
as §1, with “5:” for “2:”, “COL10A1” for “ADAMTS5”, “COL10A1.” for “ADAMTS5.”
FIG. 6: The action of 20-mer peptides (10 nM) of SEQ ID NO: 2-17 (peptides with 1 or 2 amino acids intervals (18-19 amino acid overlap)) and a random peptide with a sequence according to SEQ ID NO: 49 on the expression of IL-6 was determined on a validated pool of passage 2 OA human articular chondrocytes (n=18) and compared to full-length recombinant BMP-7 (1 nM). […]
(Real-time PCR tracks product formation cycle by cycle.)

The mark [1] stands for this setting: Table 2 (FIG. 2: 10 nM, 24 hours, RT-qPCR, 28S rRNA normalized), vs untreated OA articular chondrocytes.
The mark [2] stands for this setting: Table 2 (FIG. 3: 10 nM, 24 hours, RT-qPCR, 28S rRNA normalized), vs untreated OA articular chondrocytes.
Where [3] appears, read: Table 2 (FIG. 4: 10 nM, 24 hours, RT-qPCR, 28S rRNA normalized), vs untreated OA articular chondrocytes.
Setting [4] is: Table 2 (FIG. 5: 10 nM, 24 hours, RT-qPCR, 28S rRNA normalized), vs untreated OA articular chondrocytes.
Setting [5] is: Table 2 (FIG. 6: 10 nM, 24 hours, RT-qPCR, 28S rRNA normalized), vs untreated OA articular chondrocytes.
[6] abbreviates: Table 2 (FIG. 7: 10 nM, 24 hours, RT-qPCR, 28S rRNA normalized), vs untreated OA articular chondrocytes.
The mark [7] stands for this setting: gene expression in OA articular chondrocytes vs untreated.
Where [8] appears, read: Table 1, gene expression in OA articular chondrocytes vs untreated.

As to “9 (APTQLNAISVLYFDDSSNVI; listed as Homo sapiens) [compound 9]”, the ADAMTS5 result under setting [1] was “+”. Also, the ALP result under setting [2] was “+”. Further, the BAPX1/NKX3.2 result under setting [3] was “+”. Further, the COL10A result under setting [4] was “-”. The IL-6 result under setting [5] is listed as “+”. For the same substance, the RUNX2 entry under setting [6] is given as “+”. Under setting [7], the COL2A1 entry is recorded as “+”, the COX-2 result was “+” and the SOX9 entry is recorded as “+”.

As for “3 (NPETVPKPSSAPTQLNAISV; listed as Homo sapiens) [compound 3]”, the ADAMTS5 entry under setting [1] is listed as “—”. Further, under setting [2], the ALP result was “—”. The BAPX1/NKX3.2 result under setting [3] is on record as “—”. Further, under setting [4], the COL10A entry is listed as “—”. Moreover, under setting [5], the IL-6 result is “—”. Further, under setting [6], the RUNX2 result was “—”.

In the case of “20 (KTPKNQEALRMANVAENSSSSSDQRQACKK; listed as Homo sapiens) [compound 20]”, under setting [8], the ADAMTS5 entry is “—”, the ALP entry is given as “—”, the BAPX1/NKX3.2 result is listed as “—” and the COL10A result was “—”. Under setting [8], the IL-6 result is “—” and the RUNX2 entry is reported as “—”.

Regarding “17 (SSNVILKKYRNMVVRASGSH; listed as Homo sapiens) [compound 17]”, under setting [1], the ADAMTS5 result is recorded as “+”. Under setting [2], the ALP result is reported as “+”. Further, the BAPX1/NKX3.2 entry under setting [3] is reported as “+”. The COL10A result under setting [4] is on record as “+”. Moreover, the IL-6 entry under setting [5] is recorded as “+”. For the same substance, the RUNX2 result under setting [6] is “+”. Besides, under setting [7], the COL2A1 result is “+”, the COX-2 entry was “+” and the SOX9 entry was “+”.

As to “KPSSAPTQLNAISVLYFDDS (listed as Homo sapiens) [SEQ ID NO: 7]”, the “suppression of the OA chondrocyte phenotype” value (from here on “suppression”) is recorded as “efficiently suppressed the OA chondrocyte phenotype”.

Take “16 (DSSNVILKKYRNMVVRASGS; listed as Homo sapiens) [compound 16]”: under setting [1], the ADAMTS5 entry was “+”. For the same substance, the ALP result under setting [2] was “+”. Under setting [3], the BAPX1/NKX3.2 entry is reported as “+”. In addition, the COL10A result under setting [4] is “+”. Besides, the IL-6 entry under setting [5] is “+”. Besides, the RUNX2 result under setting [6] was “—”. Under setting [7], the COL2A1 entry is given as “+”, the COX-2 result is listed as “+” and the SOX9 result is listed as “+”.

For “7 (KPSSAPTQLNAISVLYFDDS; listed as Homo sapiens) [compound 7]”, the ADAMTS5 entry under setting [1] is listed as “+”. The ALP result under setting [2] is reported as “+”. The BAPX1/NKX3.2 entry under setting [3] is given as “+”. Besides, the COL10A result under setting [4] is “+”. Moreover, the IL-6 entry under setting [5] was “+”. The RUNX2 result under setting [6] is recorded as “+”. Besides, under setting [7], the COL2A1 result is given as “+”, the COX-2 result is on record as “+” and the SOX9 result was “+”.

Regarding “25 (CCAPTQLNAISVLYFDDSSN; listed as Homo sapiens) [compound 25]”, under setting [8], the ADAMTS5 entry is listed as “—”, the ALP entry is “—”, the BAPX1/NKX3.2 result was “—” and the COL10A result is reported as “—”. Further, under setting [8], the IL-6 result was “—” and the RUNX2 result is given as “—”.

Consider “LNAISVLYFDDSSNVILKKY (listed as Homo sapiens) [SEQ ID NO: 11]”, for which the “suppression” value is recorded as “efficiently suppressed the OA chondrocyte phenotype”.

For “22 (DLGWQDWIIAPEGYAAYYCE; listed as Homo sapiens) [compound 22]”, under setting [8], the ADAMTS5 entry is on record as “—”, the ALP result was “—”, the BAPX1/NKX3.2 entry was “—” and the COL10A entry is reported as “—”. Under setting [8], the IL-6 result is “—” and the RUNX2 entry is listed as “—”.

“PKPSSAPTQLNAISVLYFDD (listed as Homo sapiens) [SEQ ID NO: 6]”: the “suppression” value was “efficiently suppressed the OA chondrocyte phenotype”.

With “APTQLNAISVLYFDDSSNVI (listed as Homo sapiens) [SEQ ID NO: 9]”, the “suppression” value is reported as “efficiently suppressed the OA chondrocyte phenotype”.

Regarding “LYFDDSSNVILKKYRNMVVR (listed as Homo sapiens) [SEQ ID NO: 14]”, the “suppression” value was “efficiently suppressed the OA chondrocyte phenotype”.

For “6 (PKPSSAPTQLNAISVLYFDD; listed as Homo sapiens) [compound 6]”, the ADAMTS5 result under setting [1] is reported as “+”. Further, under setting [2], the ALP result was “+”. Also, the BAPX1/NKX3.2 entry under setting [3] is given as “+”. The COL10A result under setting [4] is reported as “+”. The IL-6 result under setting [5] is “+”. Besides, the RUNX2 entry under setting [6] is on record as “+”. Under setting [7], the COL2A1 entry is “+”, the COX-2 entry is “+” and the SOX9 entry is “+”.

For “NPETVPKPSSAPTQLNAISV (listed as Homo sapiens) [SEQ ID NO: 3]”, the “activity in the assays as employed herein (table 2)” value was “lost its activity”.

Take “23 (CEGECAFPLNSYMNATNHAI; listed as Homo sapiens) [compound 23]”: under setting [8], the ADAMTS5 entry is “—”, the ALP result was “—”, the BAPX1/NKX3.2 entry is listed as “—” and the COL10A entry was “—”. Also, under setting [8], the IL-6 entry is listed as “—” and the RUNX2 result is on record as “—”.

For “VPKPSSAPTQLNAISVLYFD (listed as Homo sapiens) [SEQ ID NO: 5]”, the “activity in the assays as employed herein (table 2)” value was “lost its activity”.

As to “FDDSSNVILKKYRNMVVRAS (listed as Homo sapiens) [SEQ ID NO: 15]”, the “suppression” value was “efficiently suppressed the OA chondrocyte phenotype”.

“21 (SSDQRQACKKHELYVSFRDL; listed as Homo sapiens) [compound 21]”: under setting [8], the ADAMTS5 result was “—”, the ALP result is on record as “—”, the BAPX1/NKX3.2 result was “—” and the COL10A entry is “—”. Moreover, under setting [8], the IL-6 result is recorded as “—” and the RUNX2 entry is “—”.

As for “AISVLYFDDSSNVILKKYRN (listed as Homo sapiens) [SEQ ID NO: 12]”, the “suppression” value is listed as “efficiently suppressed the OA chondrocyte phenotype”.

For “11 (LNAISVLYFDDSSNVILKKY; listed as Homo sapiens) [compound 11]”, under setting [1], the ADAMTS5 result is reported as “+”. In addition, the ALP entry under setting [2] is “+”. In addition, the BAPX1/NKX3.2 entry under setting [3] is listed as “+”. For the same substance, the COL10A entry under setting [4] is “+”. Moreover, the IL-6 entry under setting [5] is “+”. The RUNX2 entry under setting [6] is on record as “+”. Under setting [7], the COL2A1 entry is “+”, the COX-2 entry is given as “+” and the SOX9 result is on record as “+”.
